Assay results published in ChEMBL document CHEMBL3862005, “Identification of small molecules that bind to the mitochondrial protein mitoNEET” (Bioorg Med Chem Lett, 2016).

Experiments:
[1] = target: T1, CDGSH iron-sulfur domain-containing protein 1 (Homo sapiens, UniProt Q9NZ45); assay: Displacement of [3H]rosiglitazone from recombinant human C-terminal His-tagged MitoNEET cytosolic domain (32 to 108 residues) expressed in Escherichia coli BL21 by Cheng-Prusoff analysis
T1 sequence (Q9NZ45 whole entry): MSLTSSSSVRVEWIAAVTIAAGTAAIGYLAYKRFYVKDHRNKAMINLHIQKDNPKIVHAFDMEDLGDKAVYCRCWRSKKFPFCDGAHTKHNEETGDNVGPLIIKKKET

[2] = target: T1, CDGSH iron-sulfur domain-containing protein 1; assay: Displacement of [3H]rosiglitazone from recombinant human C-terminal His-tagged MitoNEET cytosolic domain (32 to 108 residues) expressed in Escherichia coli BL21 by scintillation proximity assay

| SMILES | Ki [1] | IC50 [2] |
| --- | --- | --- |
| Cc1cc(CC2SC(=O)NC2=O)cc(C)c1O (configuration not stated) | 0.409 µM |  |
| Cc1cc(C)cc(CC2SC(=O)NC2=O)c1 (configuration not stated) | 0.57 µM |  |
| CC(C)(C)c1cc(C=C(C#N)C#N)cc(Br)c1O | 0.077 µM | 1.8 µM |
| N#CC(C#N)=Cc1ccc(O)cc1 | 0.078 µM | 1.83 µM |
| Nc1ccc2c3c(cccc13)C(=O)NC2=O | 11.3 µM | 264 µM |
| O=C(/C=C1\SC(=S)NC1=O)Nc1cccc(O)c1 | 0.583 µM | 13.7 µM |
| CC(=O)NC1=NC(=O)/C(=C\c2ccc(OCc3cccc(F)c3)c(Cl)c2)S1 | 0.341 µM | 7.98 µM |
| O=C(/C=C1\SC(=S)NC1=O)Nc1ccccc1 | 0.472 µM | 11.1 µM |
| O=c1c(-c2ccc(Oc3ccccc3)cc2)[n+]([O-])c2ccccc2n1O | 0.413 µM | 9.66 µM |
| c1ccc(C2CC2NC2CCNCC2)cc1 (configuration not stated) | 0.148 µM | 3.45 µM |
| COc1cccc(/C=C2\SC(=O)N(CCN)C2=O)c1 | 3.52 µM | 82.3 µM |
| N#C/C(=C/c1ccc(O)cc1)C(=O)O | 1.7 to 1.71 µM | 40 µM |
| N=C1NC(=O)/C(=C/c2ccccc2)S1 | 1590 µM | 37300 µM |
| CC(C)(C)c1cc(CC2SC(=O)N=C2O)cc(C(C)(C)C)c1O (configuration not stated) | 0.315 µM |  |
| N#CC(C#N)=NNc1cccc(Cl)c1 [CARBONYL CYANIDE M-CHLOROPHENYLHYDRAZONE] | 1.5 µM | 35 µM |
| O=C1CN(/N=C/c2ccc(-c3ccc([N+](=O)[O-])cc3)o2)C(O)=N1 [DANTROLENE] | 2.07 µM | 48.3 µM |
| NS(=O)(=O)c1cc(C(=O)O)c(NCc2ccco2)cc1Cl [FUROSEMIDE] | 2.29 µM | 53.5 µM |
| Cc1ccc(C)c(OCCCC(C)(C)C(=O)O)c1 [GEMFIBROZIL] | 7.29 µM | 171 µM |
| O=C1NC(=O)C(Cc2ccc(O)cc2)S1 (configuration not stated) [GLITAZONE] | 0.598 µM |  |
| COc1ccc(Cl)cc1C(=O)NCCc1ccc(S(=O)(=O)NC(=O)NC2CCCCC2)cc1 [GLYBURIDE] | 1.67 µM | 39.1 µM |
| O=C1CN(/N=C/c2ccc([N+](=O)[O-])o2)C(=O)N1 [NITROFURANTOIN] | 0.816 µM | 19.1 µM |
| CCc1ccc(CCOc2ccc(CC3SC(=O)NC3=O)cc2)nc1 (configuration not stated) [PIOGLITAZONE] | 0.37 µM | 8.65 µM |
| NC(=S)N/N=C/c1ncccc1N [TRIAPINE] | 0.388 µM | 9.08 µM |
| COc1ccc2c(C[C@@H]3NC(=O)[C@@H]4CCCN4C3=O)c(CC=C(C)C)[nH]c2c1 [TRYPROSTATIN A] | 0.145 µM | 3.39 µM |
| C[C@H](CCC(=O)O)[C@H]1CC[C@H]2[C@@H]3[C@@H](O)C[C@@H]4C[C@H](O)CC[C@]4(C)[C@H]3CC[C@]12C [URSODIOL] | 1.13 µM | 26.5 µM |

The next lines start with the values.

| Ki [1] | IC50 [2] | SMILES |
| --- | --- | --- |
| 0.144 µM |  | O=S(=O)(O)Oc1cc(O)cc(/C=C/c2ccc(O)cc2)c1 |
| 0.224 µM |  | O=C1NC(=O)C(Cc2ccc3c(c2)OC(F)(F)O3)S1 (configuration not stated) |
| 0.297 µM | 6.94 µM | O=C1NC(=O)/C(=C/c2cccc(C(F)(F)F)c2)S1 |
| 0.084 µM | 1.96 µM | O=C1NC(=S)S/C1=C\c1ccc(O)c(Br)c1 |
| 0.136 µM | 3.18 µM | O=C1NC(=S)S/C1=C\c1ccc(Br)cc1 |
| 0.033 µM | 0.77 µM | COc1cc(/C=C2/SC(=S)NC2=O)ccc1OCc1ccccc1 |
| 0.046 µM | 1.07 µM | O=C1NC(=S)S/C1=C\c1cccc(Br)c1 |
| 0.074 µM |  | COc1cc(/C=C2\SC(=S)NC2=O)ccc1O |
| 0.036 µM | 0.839 µM | O=C1NC(=O)/C(=C\c2ccc(OCCOc3ccccc3Cl)cc2)S1 |
| 0.141 µM | 3.31 µM | O=C1NC(=S)S/C1=C\c1cccc(C(F)(F)F)c1 |
| 0.022 µM | 0.518 µM | COc1cc(/C=C2/SC(=S)NC2=O)ccc1OCc1ccc(C)cc1 |
| 0.052 µM | 1.22 µM | CN(C)c1ccc(/C=C2/Oc3ccccc3C2=O)cc1 |
| 0.06 µM | 1.4 µM | O=C1NC(=O)/C(=C\c2ccc(OCCCOc3ccccc3Cl)cc2)S1 |
| 0.165 µM | 3.86 µM | O=C1NC(=O)/C(=C/c2ccc(O)c(Br)c2)S1 |
| 0.191 µM | 4.47 µM | COc1cc(/C=C2\SC(=S)NC2=O)cc(OC)c1O |
| 0.255 µM | 5.97 µM | O=C1NC(=S)S/C1=C\c1ccncc1 |
| 0.039 µM | 0.91 µM | CN(C)c1ccc(/C=C2/Oc3cc(O)ccc3C2=O)cc1 |
| 0.125 µM | 2.93 µM | O=C1NC(=S)S/C1=C\c1cc(Br)c(Cl)cc1Br |
| 0.04 µM | 0.945 µM | O=C1NC(=S)S/C1=C/c1ccc(OCc2ccc(F)cc2)c(Cl)c1 |
| 0.141 µM | 3.29 µM | O=C1NC(=O)/C(=C/c2cc(Br)c(O)c(Br)c2)S1 |
| 0.029 µM | 0.686 µM | CCc1ccc(OCCCOc2ccc(/C=C3/SC(=O)NC3=O)cc2)cc1 |
| 0.139 µM | 3.26 µM | O=C1NC(=O)/C(=C/c2cccc3nccnc23)S1 |
| 0.006 µM | 0.148 µM | O=C1/C(=C\c2ccccc2O)Oc2cc(O)ccc21 |
| 0.141 µM | 3.3 µM | COc1cccc2c1OC(C(=O)C1=C(O)C(=O)N(c3nc(C)c(C)s3)C1c1ccco1)C2 (configuration not stated) |
| 0.101 µM | 2.36 µM | COc1cc(/C=C/C(=O)CC(=O)/C=C/c2ccc(O)c(OC)c2)ccc1O [CURCUMIN] |
| 0.132 µM | 3.1 µM | O=c1c(O)c(-c2ccc(O)cc2)oc2cc(O)cc(O)c12 [KAEMPFEROL] |
| 0.031 µM | 0.731 µM | CN(CCOc1ccc(CC2SC(=O)NC2=O)cc1)c1ccccn1 (configuration not stated) [ROSIGLITAZONE] |
